# Test results as given in PMC10703426, “New characterization of dihydroergotamine receptor pharmacology in the context of migraine: utilization of a β-arrestin recruitment assay” (Frontiers in Neurology, 2023).
# Structures can show the parent of a compound that is named as a salt. Where two headings read alike, the source gives them in different places.
# Key:
# [1] = test system: 5-HT2C; details: IV DHE (53 ng/mL); cited from earlier work
# [2] = test system: α-adrenergic2A; details: IV DHE (53 ng/mL); cited from earlier work
# [3] = test system: 5-HT7; details: IV DHE (53 ng/mL); cited from earlier work
# [4] = 1.0 mg of IV DHE, phase 1 study, cited from earlier work
# [5] = biological target: T1, α-adrenergic2C (Homo sapiens, UniProt P18825); assay: gpcrMAX PathHunter β-arrestin recruitment, antagonist mode; assay type: cell-based
# T1 construct: ProLink enzyme-donor fragment of β-galactosidase (own knowledge of the PathHunter design)
# T1 sequence (P18825 whole entry, the tested form may be a part): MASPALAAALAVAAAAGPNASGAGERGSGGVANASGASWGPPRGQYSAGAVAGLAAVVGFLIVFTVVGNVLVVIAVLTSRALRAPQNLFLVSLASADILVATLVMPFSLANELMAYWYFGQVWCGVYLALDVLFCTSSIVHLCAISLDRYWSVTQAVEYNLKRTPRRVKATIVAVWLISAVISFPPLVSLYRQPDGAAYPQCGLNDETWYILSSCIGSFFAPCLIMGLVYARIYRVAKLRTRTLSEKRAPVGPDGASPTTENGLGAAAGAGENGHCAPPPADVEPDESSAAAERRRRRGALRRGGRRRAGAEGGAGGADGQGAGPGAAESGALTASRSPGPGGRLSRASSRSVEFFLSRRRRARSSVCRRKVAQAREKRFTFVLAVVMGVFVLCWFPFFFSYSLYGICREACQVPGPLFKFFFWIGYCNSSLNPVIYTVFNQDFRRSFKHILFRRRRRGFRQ
# Description: (§1) PathHunter cell lines were expanded from freezer stocks according to standard procedures and cells were seeded in a total volume of 20 μL into white-walled, 384-well microplates in duplicate and incubated at 37°C prior to testing. […] Intermediate dilution (1% vehicle concentration) of sample stocks was performed to generate a 5× sample in assay buffer, of which 5 μL was added to the cells and incubated for 90 or 180 min at 37°C or room temperature, depending on the specific receptor, as established by manufacturer optimization protocols (see Supplementary Table 1). For antagonist activity, cells were preincubated with an antagonist for 30 min, followed by an agonist challenge at 80% of the maximal effective concentration (EC80). Intermediate dilution of sample stocks was performed to generate 5× sample in assay buffer, of which 5 μL was added to cells and incubated at 37°C or room temperature for 30 min. This was followed by an addition of 5 μL of 6× EC80 agonist in assay buffer to the cells, which were incubated at 37°C or room temperature for 90 or 180 min. Assay signal for agonist and antagonist modes was generated through a single addition of 12.5 or 15 μL (50% v/v) of PathHunter Detection reagent cocktail, followed by a 1-h incubation at room temperature. Further experimental details can be found in the Supplementary File. Microplates were read with a PerkinElmer EnVision (Shelton, CT) instrument for chemiluminescent signal detection.
# (§2) Measurement of agonist and antagonist activity in the assay was calculated as percent activity of relative luminescence units (from positive control). Significance of agonist/antagonist activity was determined based upon prespecified criteria provided by Eurofins DiscoverX. In brief, receptor activity >30% was considered a significant agonist effect. Receptor inhibition >50% was considered a significant inhibitory effect. Please refer to the Supplementary File for more detail.
# (§3) Samples were added to cells and incubated for 90 or 180 minutes at 37 °C or room temperature, depending on the specific receptor, as noted, with specific incubation protocols outlined in Supplemental Table 1. For antagonist activity, preincubation temperatures were performed at the temperatures specified in Supplemental Table 1, per target. Incubation with 6× EC80 agonist was determined by the assay manufacturer and selected in order to provide a challenge that was low enough to be below the saturation point, so as to not bias the results, while still at a high enough challenge concentration to yield a robust signal-to-noise ratio. Further information is available from Eurofins Discovery Services upon request.
# [6] = biological target: T2, D4 (Homo sapiens, UniProt P21917); assay: as above; assay type: cell-based
# T2 construct: ProLink enzyme-donor fragment of β-galactosidase (own knowledge of the PathHunter design)
# T2 sequence (P21917 whole entry, the tested form may be a part): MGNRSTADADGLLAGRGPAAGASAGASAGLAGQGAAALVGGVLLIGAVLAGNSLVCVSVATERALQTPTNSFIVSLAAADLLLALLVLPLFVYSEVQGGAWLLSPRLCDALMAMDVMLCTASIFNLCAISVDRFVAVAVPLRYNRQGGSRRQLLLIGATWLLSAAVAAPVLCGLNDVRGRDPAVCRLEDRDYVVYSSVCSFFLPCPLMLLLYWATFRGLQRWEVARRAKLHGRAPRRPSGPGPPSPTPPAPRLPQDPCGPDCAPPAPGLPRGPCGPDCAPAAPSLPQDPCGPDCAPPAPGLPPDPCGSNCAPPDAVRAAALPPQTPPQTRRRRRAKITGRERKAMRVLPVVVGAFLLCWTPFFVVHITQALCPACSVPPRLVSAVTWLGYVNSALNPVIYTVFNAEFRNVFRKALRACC
# Description: as §1, §2, §3
# [7] = biological target: T3, D3 (Homo sapiens, UniProt P35462); assay: as above; assay type: cell-based
# T3 construct: ProLink enzyme-donor fragment of β-galactosidase (own knowledge of the PathHunter design)
# T3 sequence (P35462 whole entry, the tested form may be a part): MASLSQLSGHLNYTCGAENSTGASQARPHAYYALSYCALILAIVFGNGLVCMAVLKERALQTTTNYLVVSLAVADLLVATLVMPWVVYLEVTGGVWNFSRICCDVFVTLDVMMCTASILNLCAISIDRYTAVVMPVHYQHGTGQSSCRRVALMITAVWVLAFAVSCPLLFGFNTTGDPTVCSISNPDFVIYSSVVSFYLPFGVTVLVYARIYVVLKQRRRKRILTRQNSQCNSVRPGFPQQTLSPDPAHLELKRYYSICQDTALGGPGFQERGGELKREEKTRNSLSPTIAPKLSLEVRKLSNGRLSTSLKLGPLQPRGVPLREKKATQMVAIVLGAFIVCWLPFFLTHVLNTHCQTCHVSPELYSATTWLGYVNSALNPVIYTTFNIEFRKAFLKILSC
# Description: as §1, §2, §3
# [8] = biological target: T4, α-adrenergic2A (Homo sapiens, UniProt P08913); assay: as above; assay type: cell-based
# T4 construct: ProLink enzyme-donor fragment of β-galactosidase (own knowledge of the PathHunter design)
# T4 sequence (P08913 whole entry, the tested form may be a part): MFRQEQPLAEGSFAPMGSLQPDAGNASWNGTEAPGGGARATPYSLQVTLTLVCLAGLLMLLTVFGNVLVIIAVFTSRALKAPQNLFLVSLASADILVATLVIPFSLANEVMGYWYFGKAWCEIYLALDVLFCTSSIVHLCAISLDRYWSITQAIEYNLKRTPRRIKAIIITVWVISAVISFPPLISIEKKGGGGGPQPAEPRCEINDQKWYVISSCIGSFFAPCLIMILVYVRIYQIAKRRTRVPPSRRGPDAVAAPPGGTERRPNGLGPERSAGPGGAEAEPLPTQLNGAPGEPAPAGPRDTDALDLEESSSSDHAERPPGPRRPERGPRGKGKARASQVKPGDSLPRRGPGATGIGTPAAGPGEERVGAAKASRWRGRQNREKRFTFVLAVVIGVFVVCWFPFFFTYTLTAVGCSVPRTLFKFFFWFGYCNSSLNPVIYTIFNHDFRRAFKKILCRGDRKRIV
# Description: as §1, §2, §3
# [9] = biological target: T5, D1 (Homo sapiens, UniProt P21728); assay: as above; assay type: cell-based
# T5 construct: ProLink enzyme-donor fragment of β-galactosidase (own knowledge of the PathHunter design)
# T5 sequence (P21728 whole entry, the tested form may be a part): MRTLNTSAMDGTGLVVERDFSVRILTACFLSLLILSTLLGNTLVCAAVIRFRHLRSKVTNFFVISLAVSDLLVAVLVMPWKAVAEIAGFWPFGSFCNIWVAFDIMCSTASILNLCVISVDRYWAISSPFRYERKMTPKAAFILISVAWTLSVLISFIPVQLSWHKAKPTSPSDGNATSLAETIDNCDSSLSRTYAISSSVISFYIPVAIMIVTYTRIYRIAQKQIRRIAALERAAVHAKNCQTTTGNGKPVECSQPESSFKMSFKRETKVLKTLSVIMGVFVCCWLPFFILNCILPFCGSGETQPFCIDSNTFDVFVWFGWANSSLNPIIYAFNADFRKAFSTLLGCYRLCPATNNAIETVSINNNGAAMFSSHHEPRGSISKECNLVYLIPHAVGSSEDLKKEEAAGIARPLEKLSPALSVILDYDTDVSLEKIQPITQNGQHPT
# Description: as §1, §2, §3
# [10] = biological target: T6, α-adrenergic1B (Homo sapiens, UniProt P35368); assay: as above; assay type: cell-based
# T6 construct: ProLink enzyme-donor fragment of β-galactosidase (own knowledge of the PathHunter design)
# T6 sequence (P35368 whole entry, the tested form may be a part): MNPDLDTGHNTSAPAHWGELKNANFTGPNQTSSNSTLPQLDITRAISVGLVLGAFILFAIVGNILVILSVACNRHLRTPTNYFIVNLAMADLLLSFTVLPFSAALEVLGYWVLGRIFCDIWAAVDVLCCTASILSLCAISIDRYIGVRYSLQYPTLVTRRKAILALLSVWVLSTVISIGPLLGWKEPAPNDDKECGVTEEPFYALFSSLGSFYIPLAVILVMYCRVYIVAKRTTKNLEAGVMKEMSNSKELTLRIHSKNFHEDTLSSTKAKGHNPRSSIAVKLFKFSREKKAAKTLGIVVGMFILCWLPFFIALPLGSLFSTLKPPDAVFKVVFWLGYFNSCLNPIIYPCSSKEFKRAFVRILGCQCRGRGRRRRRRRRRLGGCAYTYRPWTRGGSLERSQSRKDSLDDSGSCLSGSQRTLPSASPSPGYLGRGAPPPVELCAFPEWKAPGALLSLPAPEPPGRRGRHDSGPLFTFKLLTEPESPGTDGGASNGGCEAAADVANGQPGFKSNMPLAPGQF
# Description: as §1, §2, §3
# [11] = biological target: T7, AMY2 (CTR-RAMP2) (Homo sapiens, UniProt O60895+P30988); assay: as above; assay type: cell-based
# T7 construct: ProLink enzyme-donor fragment of β-galactosidase (own knowledge of the PathHunter design)
# T7 sequence (P30988 25-474): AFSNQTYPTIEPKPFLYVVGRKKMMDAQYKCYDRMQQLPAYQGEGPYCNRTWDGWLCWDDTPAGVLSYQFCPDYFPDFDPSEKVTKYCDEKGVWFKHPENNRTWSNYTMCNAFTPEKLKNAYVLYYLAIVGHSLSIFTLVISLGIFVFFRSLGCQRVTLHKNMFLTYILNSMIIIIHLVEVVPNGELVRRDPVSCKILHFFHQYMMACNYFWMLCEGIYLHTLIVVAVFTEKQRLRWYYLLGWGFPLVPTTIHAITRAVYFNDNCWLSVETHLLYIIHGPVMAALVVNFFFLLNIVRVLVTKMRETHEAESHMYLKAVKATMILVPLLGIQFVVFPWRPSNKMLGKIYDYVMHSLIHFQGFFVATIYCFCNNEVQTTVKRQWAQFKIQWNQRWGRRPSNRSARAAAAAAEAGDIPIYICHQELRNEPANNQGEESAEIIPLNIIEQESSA
# T7 sequence (O60895 43-175 partner): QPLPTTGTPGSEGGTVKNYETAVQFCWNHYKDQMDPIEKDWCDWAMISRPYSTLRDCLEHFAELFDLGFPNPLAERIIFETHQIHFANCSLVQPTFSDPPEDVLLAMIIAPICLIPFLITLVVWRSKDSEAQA
# Description: as §1, §2, §3
# [12] = biological target: T8, 5-HT1F (Homo sapiens, UniProt P30939); assay: as above; assay type: cell-based
# T8 construct: ProLink enzyme-donor fragment of β-galactosidase (own knowledge of the PathHunter design)
# T8 sequence (P30939 1-366): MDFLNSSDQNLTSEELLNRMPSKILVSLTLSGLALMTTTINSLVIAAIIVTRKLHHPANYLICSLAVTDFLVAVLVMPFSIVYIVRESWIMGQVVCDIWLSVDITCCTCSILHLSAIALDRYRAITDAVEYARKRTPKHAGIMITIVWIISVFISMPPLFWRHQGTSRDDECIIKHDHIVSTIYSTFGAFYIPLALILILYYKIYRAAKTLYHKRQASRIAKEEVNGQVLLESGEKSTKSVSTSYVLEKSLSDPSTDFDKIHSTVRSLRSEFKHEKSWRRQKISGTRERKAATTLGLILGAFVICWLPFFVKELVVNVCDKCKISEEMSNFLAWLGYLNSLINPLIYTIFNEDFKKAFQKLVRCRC
# Description: as §1, §2, §3
# [13] = biological target: T9, D5 (Homo sapiens, UniProt P21918); assay: as above; assay type: cell-based
# T9 construct: ProLink enzyme-donor fragment of β-galactosidase (own knowledge of the PathHunter design)
# T9 sequence (P21918 whole entry, the tested form may be a part): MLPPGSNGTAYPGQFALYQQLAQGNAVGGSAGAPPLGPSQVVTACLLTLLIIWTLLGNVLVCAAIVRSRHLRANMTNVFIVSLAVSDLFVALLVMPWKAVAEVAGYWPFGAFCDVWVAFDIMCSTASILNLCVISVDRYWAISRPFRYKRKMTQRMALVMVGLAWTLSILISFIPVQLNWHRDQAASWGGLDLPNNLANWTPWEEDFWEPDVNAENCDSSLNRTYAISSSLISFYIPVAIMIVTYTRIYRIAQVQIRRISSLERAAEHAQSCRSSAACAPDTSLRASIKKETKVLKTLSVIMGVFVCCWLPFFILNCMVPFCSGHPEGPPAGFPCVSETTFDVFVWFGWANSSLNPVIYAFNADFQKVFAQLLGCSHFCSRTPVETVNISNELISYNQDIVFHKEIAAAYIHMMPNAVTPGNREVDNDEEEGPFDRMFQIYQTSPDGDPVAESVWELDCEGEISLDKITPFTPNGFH
# Description: as §1, §2, §3
# [14] = test system: 5-HT1B/1D receptors; set-up: method as in doi:10.1186/1129-2377-14-S1-P75; details: cited from earlier work
# [15] = 1 mg of IV DHE, cited from earlier work
# [16] = 10 μM, >50% inhibition = antagonist
# [17] = agonist control UK 14,304 at EC80
# [18] = agonist control Dopamine at EC80
compound,measurement,setting,value
"CN1C[C@H](C(=O)N[C@]2(C)O[C@@]3(O)[C@@H]4CCCN4C(=O)[C@H](Cc4ccccc4)N3C2=O)C[C@@H]2c3cccc4[nH]cc(c34)C[C@H]21 [DHE, Dihydroergotamine mesylate]",receptor radioligand binding (active binding),[1],X (An X denotes active binding)
same,receptor radioligand binding (active binding),[2],X (An X denotes active binding)
same,receptor radioligand binding (active binding),[3],X (An X denotes active binding)
same,Human plasma Cmax,[4],14.2 ng/mL
same,Cmax,[4]; read-out: Human plasma Cmax,~24 nM
same,DHE activity (screening),[5]; [16],Antagonist
same,inhibition at 10 µM,[5]; [17],124%
same,DHE activity (screening),[6]; [16],Antagonist
same,inhibition at 10 µM,[6]; [18],83%
same,DHE activity (screening),[7]; [16],Antagonist
same,inhibition at 10 µM,[7]; [18],91%
same,DHE activity (screening),[8]; [16],Antagonist
same,inhibition at 10 µM,[8]; [17],115%
same,DHE activity (screening),[9]; [16],Antagonist
same,inhibition at 10 µM,[9]; [18],71%
same,DHE activity (screening),[10]; [16],Antagonist
same,inhibition at 10 µM,[10]; agonist control Phenylephrine at EC80,95%
same,inhibition at 10 µM,[11],57%
same,DHE activity (screening),[11]; [16],Antagonist
same,IC50,[12],149 nM
same,DHE activity (screening),[12]; [16],Antagonist
same,inhibition at 10 µM,"[12]; 10 μM, agonist control Serotonin at EC80",92%
same,DHE activity (screening),[13]; [16],Antagonist
same,inhibition at 10 µM,[13]; [18],54%
same,time bound to the receptors longer than sumatriptan,[14]; 5-HT1B and 5-HT1D,8 to 14 h
same,"dissociation half-lives, times longer than those of sumatriptan",[14]; human 5-HT1B and 5-HT1D,approximately 10 times
same,maximum plasma concentration (Cmax),[15],53 ng/mL
same,Cmax,[15]; read-out: maximum plasma concentration (Cmax),~91 nM
